From US7169789B2 (Kirin Beer Kabushiki Kaisha, priority 1999, dated 2007) come the findings set out here.

pIC50: −log10 of the molar value. Like-named read-outs stand apart in the source and are kept apart here.

Data set [1] has as its system activation of MAPK within vascular endothelial cells induced by VEGF stimulation. Kind of data set: Inhibitory activity against activation of MAPK within vascular endothelial cells induced by VEGF stimulation. The data set is classed as cell-based. The note with it: Endothelial cell; human funicular venous vascular endothelial cells, VEGF 50 ng/ml, phosphorylated MAPK by immunoblotting. The method, boiled down: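 Serum-starved (0.5% FCS, 24 h) human umbilical vein endothelial cells pretreated with compound 1 h at 37 °C, then stimulated with 50 ng/ml recombinant human VEGF for 8 min.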
(In general: A western blot detects proteins with antibodies after separation by electrophoresis.)

For data set [2], the system named is A375 human melanoma cells. The data set is described as follows: Karyomorphosis test. The note with it: test compound 10 μM and 1 μM, 48 hr, nuclei stained with propidium iodide. The data set is classed as cell-based. On the procedure: A375 human melanoma cells (2×10^4) (obtained from Japanese Foundation for Cancer Research) were incolulated on a culture slide (manufactured by Falcon) and were cultured at 37° C. After the elapse of 5 hr from the initiation of the cultivation, the test compound was added to 10 μM and 1 μM, and the cultivation was continued for additional 48 hr. After the fixation of cells, 50 μg/ml propidium iodide solution containing ribonuclease (200 μg/ml) was added to stain nuclei. The stained nuclei were observed under a fluorescent microscope to analyze the nuclei for abnormality of karyomorphosis.

Another data set concerns Human glioma cells GL07. The data set is described as follows: Antitumor effect on human glioma cells (GL07) transplanted into nude mice. The data set is classed as in vivo. The note with it: Mus musculus, Glioma cell, 216 h, 20 mg/kg once a day for 9 days, read-out: TGIR, % (tumor growth inhibition rate). The method, boiled down: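 GL07 xenografts in nude mice, grouped (n=4) at ~100 mm^3 tumor volume. Test compound 20 mg/kg p.o. or i.p. once daily for 9 days; vehicle controls. TGIR = (1−Tx/Cx)×100 from tumor volumes normalized to day-of-start volume = 1.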

The pIC50 is the negative decadic logarithm of the IC50, by convention in mol/L. A high value points to a small IC50. As for `COc1cc2nccc(Oc3cc(C)c(NC(=O)Nc4ccc(F)cc4F)cc3C)c2cc1OC` [Example 37, N-(2,4-Difluorophenyl)-N′-{4-[(6,7-dimethoxy-4-quinolyl)oxy]-2,5-dimethylphenyl}urea], in data set [1], the pIC50 was 8.64. In data set [2], the Change in morphosis result is reported as “(−) (the change in karyomorphosis of cells did not take place at 10 μM)”. Moreover, in the data set on Human glioma cells GL07 (ip, GL07, intraperitoneal), the inhibition in vivo at 20 mg/kg was 70%.

`COc1cc2nccc(Oc3ccc(NC(=O)Nc4ccc(Cl)cn4)c(Cl)c3)c2cc1OC` [Example 16, N-{2-Chloro-4-[(6,7-dimethoxy-4-quinolyl)oxy]phenyl}-N′-(5-chloro-2-pyridyl)urea] showed a pIC50 in data set [1] of 8.54. Besides, the Change in morphosis entry in data set [2] was “(−) (the change in karyomorphosis of cells did not take place at 10 μM)”. In addition, the inhibition in vivo at 20 mg/kg with Human glioma cells GL07 (ip, GL07, intraperitoneal) was found to be 77%.

For `COc1ccccc1NC(=O)Nc1ccc(Oc2ccnc3cc(OC)c(OC)cc23)cc1Cl` [Example 18, N-{2-Chloro-4-[(6,7-dimethoxy-4-quinolyl)oxy]phenyl}-N′-(2-methoxyphenyl)urea], in data set [1], the negative-log IC50 (pIC50) was 9.22. Moreover, the Change in morphosis entry in data set [2] is recorded as “(−) (the change in karyomorphosis of cells did not take place at 10 μM)”. The inhibition in vivo at 20 mg/kg with Human glioma cells GL07 (GL07, oral) is 57%.
